Results taken from patent US12285399B2, “Composition comprising bornyl acetate or pharmaceutically acceptable salt thereof as active ingredient for prevention or treatment of stress-related disorder” (UNIVERSITY-INDUSTRY COOPERATION GROUP OF KYUNG HEE …, priority 2019, dated 2025).

Experiments:
Type in all cases: in vivo, C57BL/6NTac mice
Iba-1 = assay: Immunohistochemical staining for Iba-1 (microglia activation) in brain of CRS model; conditions: hippocampus and amygdala, CRS+BA group, 100 mg/kg oral
Method: (§1) In order to confirm the antidepressant efficacy of bornyl acetate on the animal model of stress depression, an animal model of depression induced by chronic restrained stress (CRS) was prepared. Specifically, the animal model, 8-week-old male C57BL/6NTac mice after birth (Narabiotechnology, Korea; weight 22-24 g) had been stabilized for 1 week. A 50 ml conical tube (SPL Life sciences, Pocheon, Korea) was punched to make a hole, thereby making a restraint frame. The mice were put in the frame and restrained for 2 hours every day for 14 days. After restraint, the mice were allowed to freely ingest water and food in the home cage. Bornyl acetate (100 mg/kg) was administered orally 1 hour before induction of restraint stress every day. 14 days later, the mice were anesthetized, and 4% paraformaldehyde was perfused into the heart. Then, the mice were fixed, and the brain was excised. The excised brain was immersed in 4% paraformaldehyde and fixed at 4° C. for one more day. It was then changed to 30% sucrose, and the brain was stored at 4° C. for 3 days or more to prevent freeze damage. The brain was cut into a thickness of 30 μm using a cryocut microtome to prepare the frozen sections. […]

c-Fos = assay: Immunohistochemical staining for c-Fos in brain of CRS model; conditions: hippocampus and amygdala, CRS+BA group, 100 mg/kg oral
Method: as §1

[1] = Body weight change in chronic restrained stress (CRS) depression model; conditions: CRS+BA group, oral, 14 days of restrained stress, 14th day
Method: In order to confirm the antidepressant efficacy of bornyl acetate on the animal model of stress depression, an animal model of depression induced by chronic restrained stress (CRS) was prepared. Specifically, the animal model, 8-week-old male C57BL/6NTac mice after birth (Narabiotechnology, Korea; weight 22-24 g) had been stabilized for 1 week. A 50 ml conical tube (SPL Life sciences, Pocheon, Korea) was punched to make a hole, thereby making a restraint frame. The mice were put in the frame and restrained for 2 hours every day for 14 days. After restraint, the mice were allowed to freely ingest water and food in the home cage. Bornyl acetate (25, 50 and 100 mg/kg) of the present invention was dissolved in 0.1 M PBS, and the mixture was orally administered 1 hour before inducing restrained stress every day. Bornyl acetate was administered in a dose per individual of 100 μl. Specifically, the mice were weighed during or after applying restrained stress for 2 hours per day for 14 days, followed by a tail suspension test and forced swimming test were performed, and serum stress hormone (corticosterone) levels were measured (FIGS. 1A and 1B).

CC(=O)OC1CC2CCC1(C)C2(C)C (stereo not drawn) [BA, bornyl acetate]
activation degree of microglia immunostained by Iba-1 (Iba-1): consistent | distribution of cells immunostained by c-Fos (c-Fos): consistent | body weight change [1]: no significant increase or decrease
